PMC6009956, “Design, synthesis and biological activity of N^4-phenylsubstituted-7H-pyrrolo[2,3-d]pyrimidin-4-amines as dual inhibitors of aurora kinase A and epidermal growth factor receptor kinase” (Journal of Enzyme Inhibition and Medicinal Chemistry, 2017)
Read-outs that look alike come from different tables or passages of the source.

Tests used:
[1] = test system: p-HH3 in FADU and SAS SCCHN cell lines; assay: Western blot of p-HH3 in FADU and SAS cells; assay type: cell-based; conditions: 10 nM
Protocol: Protein extracts (50 μg per lane) were electrophoretically separated on SDS-PAGE gels, transferred to membranes (Protran, Schleicher & Schuell, Dassel, Germany) and blotted with specific antibodies (actin, aurora A, aurora B: all from Sigma, Munich, Germany; S10-HH3: Millipore, Schwalbach, Germany; EGFR: Santa Cruz, Heidelberg, Germany; pEGFR: Invitrogen, Darmstadt, Germany; pAKT, pERK: both from New England Biolabs, Frankfurt, Germany).
Figure 4. Effects of compound 2 on EGFR and aurora kinases in growing SCCHN cell lines (A) Western blot analysis of EGFR (pEGFR, pERK, p-AKT) and aurora A (p-HH3) downstream target proteins following incubation with 100 μM compound 2 for the indicated time points in BHY and FADU SCCHN cell lines. (B) BHY and CAL cell lines treated for the indicated time points with 200 nM cetuximab. Western blot analysis of EGFR downstream targets. (long exposure and short exposure). […] Western blot analysis of p-HH3 at the indicated time points. Asterisk (*) represents unspecific band.

[2] = molecular target: T1, aurora A kinase (AURKA) (Homo sapiens, UniProt O14965); assay: ADP-Glo kinase assay, Aurora A; assay type: biochemical
T1 construct: purchased BPS Bioscience (assay run externally by the vendor)
T1 sequence (O14965 1-403): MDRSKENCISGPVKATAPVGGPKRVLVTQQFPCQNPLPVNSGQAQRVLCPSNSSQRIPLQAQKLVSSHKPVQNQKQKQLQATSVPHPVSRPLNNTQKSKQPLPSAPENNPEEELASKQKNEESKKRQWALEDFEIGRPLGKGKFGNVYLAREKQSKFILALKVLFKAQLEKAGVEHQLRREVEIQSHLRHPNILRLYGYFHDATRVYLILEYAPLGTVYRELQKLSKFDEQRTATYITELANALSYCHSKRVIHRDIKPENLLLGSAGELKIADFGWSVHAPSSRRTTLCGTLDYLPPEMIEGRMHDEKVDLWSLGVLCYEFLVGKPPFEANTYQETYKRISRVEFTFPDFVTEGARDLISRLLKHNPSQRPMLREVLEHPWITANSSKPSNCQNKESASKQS

[3] = molecular target: EGFR (Homo sapiens, UniProt P00533); assay: ADP-Glo kinase assay, EGFR; assay type: biochemical; parameters: purchased BPS Bioscience (assay run externally by the vendor)
[4] = 10 µM ATP, triplicate, read-out: AURKA IC50 ± SD
[5] = 10 µM ATP/0.2 mg/ml Kemptide, read-out: Aurora A IC50 (dose-response curve, supplement)
[6] = 10 µM ATP, triplicate, read-out: EGFR IC50 ± SD
[7] = 10 µM ATP/0.2 mg/ml Poly-Glu-Tyr, read-out: EGFR IC50 (dose-response curve, supplement)

EGFR, sequence (P00533 25-1210): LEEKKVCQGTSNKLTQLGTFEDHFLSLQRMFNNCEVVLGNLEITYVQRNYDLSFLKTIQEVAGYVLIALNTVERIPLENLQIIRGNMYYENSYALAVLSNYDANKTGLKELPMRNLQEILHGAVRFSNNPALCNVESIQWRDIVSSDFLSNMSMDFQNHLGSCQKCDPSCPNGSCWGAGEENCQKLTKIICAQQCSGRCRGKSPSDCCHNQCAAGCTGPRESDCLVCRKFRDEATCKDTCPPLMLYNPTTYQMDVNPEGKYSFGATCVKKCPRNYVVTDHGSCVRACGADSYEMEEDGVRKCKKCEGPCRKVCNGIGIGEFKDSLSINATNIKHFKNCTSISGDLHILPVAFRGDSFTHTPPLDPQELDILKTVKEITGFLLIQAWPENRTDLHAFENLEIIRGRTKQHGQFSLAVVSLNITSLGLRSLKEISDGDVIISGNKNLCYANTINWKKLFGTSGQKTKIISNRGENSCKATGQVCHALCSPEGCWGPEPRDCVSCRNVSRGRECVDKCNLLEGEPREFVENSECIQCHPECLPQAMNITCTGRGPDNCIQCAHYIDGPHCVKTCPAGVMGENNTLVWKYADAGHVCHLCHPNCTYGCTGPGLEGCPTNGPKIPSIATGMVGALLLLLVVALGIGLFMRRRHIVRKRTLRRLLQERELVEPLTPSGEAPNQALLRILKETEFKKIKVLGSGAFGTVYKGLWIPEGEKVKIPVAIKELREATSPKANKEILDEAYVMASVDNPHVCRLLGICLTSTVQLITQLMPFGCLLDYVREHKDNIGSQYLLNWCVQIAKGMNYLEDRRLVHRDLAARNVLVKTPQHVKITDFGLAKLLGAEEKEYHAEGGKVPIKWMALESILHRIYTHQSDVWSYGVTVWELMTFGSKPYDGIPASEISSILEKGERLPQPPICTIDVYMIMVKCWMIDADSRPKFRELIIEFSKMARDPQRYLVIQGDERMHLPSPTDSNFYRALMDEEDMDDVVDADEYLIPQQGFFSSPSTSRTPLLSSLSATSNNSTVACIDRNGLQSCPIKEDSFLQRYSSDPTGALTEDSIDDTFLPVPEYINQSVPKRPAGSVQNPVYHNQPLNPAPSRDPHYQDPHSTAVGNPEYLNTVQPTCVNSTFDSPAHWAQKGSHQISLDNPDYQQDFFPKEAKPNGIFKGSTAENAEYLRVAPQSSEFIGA

COc1cc(Nc2ncc3c(n2)-c2ccc(Cl)cc2C(c2c(F)cccc2OC)=NC3)ccc1C(=O)O [MLN8237]
Histone H3 phosphorylation (p-HH3) [1]: inhibition of histone H3 phosphorylation

Clc1cccc(Nc2ncnc3[nH]ccc23)c1 [Compound 11, N^4-(3-chlorophenyl)-7H-pyrrolo[2,3-d]pyrimidin-4-amine]
IC50 [2, 4]: 3.13 ± 0.75 µM
IC50 [2, 5]: 3.1 µM
Aurora A % Activity Set1 ([2]; Log[nM] 0): 99%
Aurora A % Activity Set2 ([2]; Log[nM] 0): 100%
Aurora A % Activity Set3 ([2]; Log[nM] 0): 90%
Aurora A % Activity Set1 ([2]; Log[nM] 1.0): 109%
Aurora A % Activity Set2 ([2]; Log[nM] 1.0): 95%
Aurora A % Activity Set3 ([2]; Log[nM] 1.0): 101%
Aurora A % Activity Set1 ([2]; Log[nM] 1.5): 102%
Aurora A % Activity Set2 ([2]; Log[nM] 1.5): 108%
Aurora A % Activity Set3 ([2]; Log[nM] 1.5): 96%
Aurora A % Activity Set1 ([2]; Log[nM] 2.0): 94%
Aurora A % Activity Set2 ([2]; Log[nM] 2.0): 104%
Aurora A % Activity Set3 ([2]; Log[nM] 2.0): 107%
Aurora A % Activity Set1 ([2]; Log[nM] 2.5): 95%
Aurora A % Activity Set2 ([2]; Log[nM] 2.5): 98%
Aurora A % Activity Set3 ([2]; Log[nM] 2.5): 99%
Aurora A % Activity Set1 ([2]; Log[nM] 3.0): 80%
Aurora A % Activity Set2 ([2]; Log[nM] 3.0): 85%
Aurora A % Activity Set3 ([2]; Log[nM] 3.0): 84%
Aurora A % Activity Set1 ([2]; Log[nM] 3.5): 42%
Aurora A % Activity Set2 ([2]; Log[nM] 3.5): 48%
Aurora A % Activity Set3 ([2]; Log[nM] 3.5): 49%
Aurora A % Activity Set1 ([2]; Log[nM] 4.0): 19%
Aurora A % Activity Set2 ([2]; Log[nM] 4.0): 22%
Aurora A % Activity Set3 ([2]; Log[nM] 4.0): 19%
Aurora A % Activity Set1 ([2]; Log[nM] 4.5): 8%
Aurora A % Activity Set2 ([2]; Log[nM] 4.5): 9%
Aurora A % Activity Set3 ([2]; Log[nM] 4.5): 8%
Aurora A % Activity Set1 ([2]; Log[nM] 5.0): 5%
Aurora A % Activity Set2 ([2]; Log[nM] 5.0): 4%
Aurora A % Activity Set3 ([2]; Log[nM] 5.0): 3%
EGFR inhibition (in words) [3]: single-digit nanomolar EGFR inhibition
IC50 [3, 6]: 0.00663 ± 0.00098 µM
IC50 [3, 7]: 0.0065 µM
EGFR % Activity Set1 ([3]; Log[nM] 0): 66%
EGFR % Activity Set2 ([3]; Log[nM] 0): 62%
EGFR % Activity Set3 ([3]; Log[nM] 0): 63%
EGFR % Activity Set1 ([3]; Log[nM] 1.0): 36%
EGFR % Activity Set2 ([3]; Log[nM] 1.0): 34%
EGFR % Activity Set3 ([3]; Log[nM] 1.0): 39%
EGFR % Activity Set1 ([3]; Log[nM] 1.5): 17%
EGFR % Activity Set2 ([3]; Log[nM] 1.5): 16%
EGFR % Activity Set3 ([3]; Log[nM] 1.5): 20%
EGFR % Activity Set1 ([3]; Log[nM] 2.0): 8%
EGFR % Activity Set2 ([3]; Log[nM] 2.0): 7%
EGFR % Activity Set3 ([3]; Log[nM] 2.0): 11%
EGFR % Activity Set1 ([3]; Log[nM] 2.5): 6%
EGFR % Activity Set2 ([3]; Log[nM] 2.5): 4%
EGFR % Activity Set3 ([3]; Log[nM] 2.5): 6%
EGFR % Activity Set1 ([3]; Log[nM] 3.0): 3%
EGFR % Activity Set2 ([3]; Log[nM] 3.0): 1%
EGFR % Activity Set3 ([3]; Log[nM] 3.0): 2%
EGFR % Activity Set1 ([3]; Log[nM] 3.5): 2%
EGFR % Activity Set2 ([3]; Log[nM] 3.5): 0%
EGFR % Activity Set3 ([3]; Log[nM] 3.5): 0%
EGFR % Activity Set1 ([3]; Log[nM] 4.0): 1%
EGFR % Activity Set2 ([3]; Log[nM] 4.0): 0%
EGFR % Activity Set3 ([3]; Log[nM] 4.0): 0%
EGFR % Activity Set1 ([3]; Log[nM] 4.5): 0%
EGFR % Activity Set2 ([3]; Log[nM] 4.5): 0%
EGFR % Activity Set3 ([3]; Log[nM] 4.5): 0%
EGFR % Activity Set1 ([3]; Log[nM] 5.0): 0%
EGFR % Activity Set2 ([3]; Log[nM] 5.0): 0%
EGFR % Activity Set3 ([3]; Log[nM] 5.0): 0%

Clc1ccc(Nc2ncnc3[nH]ccc23)cc1Br [Compound 7, N^4-(3-bromo, 4-chlorophenyl)-7H-pyrrolo[2,3-d]pyrimidine-4-amine]
IC50 [2, 4]: 3.23 ± 0.31 µM
IC50 [2, 5]: 3.3 µM
Aurora A % Activity Set1 ([2]; Log[nM] 0): 95%
Aurora A % Activity Set2 ([2]; Log[nM] 0): 102%
Aurora A % Activity Set3 ([2]; Log[nM] 0): 95%
Aurora A % Activity Set1 ([2]; Log[nM] 1.0): 100%
Aurora A % Activity Set2 ([2]; Log[nM] 1.0): 103%
Aurora A % Activity Set3 ([2]; Log[nM] 1.0): 99%
Aurora A % Activity Set1 ([2]; Log[nM] 1.5): 100%
Aurora A % Activity Set2 ([2]; Log[nM] 1.5): 103%
Aurora A % Activity Set3 ([2]; Log[nM] 1.5): 103%
Aurora A % Activity Set1 ([2]; Log[nM] 2.0): 100%
Aurora A % Activity Set2 ([2]; Log[nM] 2.0): 106%
Aurora A % Activity Set3 ([2]; Log[nM] 2.0): 105%
Aurora A % Activity Set1 ([2]; Log[nM] 2.5): 95%
Aurora A % Activity Set2 ([2]; Log[nM] 2.5): 97%
Aurora A % Activity Set3 ([2]; Log[nM] 2.5): 95%
Aurora A % Activity Set1 ([2]; Log[nM] 3.0): 95%
Aurora A % Activity Set2 ([2]; Log[nM] 3.0): 103%
Aurora A % Activity Set3 ([2]; Log[nM] 3.0): 93%
Aurora A % Activity Set1 ([2]; Log[nM] 3.5): 40%
Aurora A % Activity Set2 ([2]; Log[nM] 3.5): 40%
Aurora A % Activity Set3 ([2]; Log[nM] 3.5): 37%
Aurora A % Activity Set1 ([2]; Log[nM] 4.0): 16%
Aurora A % Activity Set2 ([2]; Log[nM] 4.0): 16%
Aurora A % Activity Set3 ([2]; Log[nM] 4.0): 15%
Aurora A % Activity Set1 ([2]; Log[nM] 4.5): 31%
Aurora A % Activity Set2 ([2]; Log[nM] 4.5): 30%
Aurora A % Activity Set3 ([2]; Log[nM] 4.5): 30%
Aurora A % Activity Set1 ([2]; Log[nM] 5.0): 17%
Aurora A % Activity Set2 ([2]; Log[nM] 5.0): 15%
Aurora A % Activity Set3 ([2]; Log[nM] 5.0): 16%
EGFR inhibition (in words) [3]: single-digit nanomolar EGFR inhibition
IC50 [3, 6]: 0.00363 ± 0.00043 µM
IC50 [3, 7]: 0.0036 µM
EGFR % Activity Set1 ([3]; Log[nM] 0): 44%
EGFR % Activity Set2 ([3]; Log[nM] 0): 50%
EGFR % Activity Set3 ([3]; Log[nM] 0): 53%
EGFR % Activity Set1 ([3]; Log[nM] 1.0): 18%
EGFR % Activity Set2 ([3]; Log[nM] 1.0): 17%
EGFR % Activity Set3 ([3]; Log[nM] 1.0): 20%
EGFR % Activity Set1 ([3]; Log[nM] 1.5): 12%
EGFR % Activity Set2 ([3]; Log[nM] 1.5): 13%
EGFR % Activity Set3 ([3]; Log[nM] 1.5): 15%
EGFR % Activity Set1 ([3]; Log[nM] 2.0): 4%
EGFR % Activity Set2 ([3]; Log[nM] 2.0): 5%
EGFR % Activity Set3 ([3]; Log[nM] 2.0): 4%
EGFR % Activity Set1 ([3]; Log[nM] 2.5): 3%
EGFR % Activity Set2 ([3]; Log[nM] 2.5): 3%
EGFR % Activity Set3 ([3]; Log[nM] 2.5): 3%
EGFR % Activity Set1 ([3]; Log[nM] 3.0): 1%
EGFR % Activity Set2 ([3]; Log[nM] 3.0): 2%
EGFR % Activity Set3 ([3]; Log[nM] 3.0): 2%
EGFR % Activity Set1 ([3]; Log[nM] 3.5): 1%
EGFR % Activity Set2 ([3]; Log[nM] 3.5): 1%
EGFR % Activity Set3 ([3]; Log[nM] 3.5): 0%
EGFR % Activity Set1 ([3]; Log[nM] 4.0): 0%
EGFR % Activity Set2 ([3]; Log[nM] 4.0): 0%
EGFR % Activity Set3 ([3]; Log[nM] 4.0): 0%
EGFR % Activity Set1 ([3]; Log[nM] 4.5): 1%
EGFR % Activity Set2 ([3]; Log[nM] 4.5): 1%
EGFR % Activity Set3 ([3]; Log[nM] 4.5): 1%
EGFR % Activity Set1 ([3]; Log[nM] 5.0): 0%
EGFR % Activity Set2 ([3]; Log[nM] 5.0): 0%
EGFR % Activity Set3 ([3]; Log[nM] 5.0): 0%
